From patent publication US11774455B2, “Peptide aptamer for specific recognition of arginine and its application” (INSTITUTE OF SUBTROPICAL AGRICULTURE, CHINESE ACADEMY OF …, priority 2019, dated 2023) come the findings set out here.

Assay [1] in a line: Binding verification by isothermal titration calorimeter with L-arginine. To be noted: ITC; 10 μM peptide aptamer titrated into 1 μM L-arginine, 10 mM PBS, pH 7.4, 37° C.; read-out: binding parameter Kd value. The procedure: In the present invention, a primary sequence of an L-arginine sensing protein which can be recognized with L-arginine is obtained by searching for the L-arginine sensing proteins and transporters from a protein library, followed by cutting the primary sequence of the L-arginine sensing protein into 8 amino acid residues to obtain a peptide library and removing repeated peptide sequences from the peptide library. Next, a molecular simulation is performed on the peptides in the deduplicated peptide library and L-arginine to obtain a peptide aptamer library that can specifically bind to the arginine, and preferably, the peptide aptamer library is selected for experimental verification. Then, a binding verification is carried out on the peptide aptamer library and the arginine by an isothermal titration calorimeter. A verification method is as follows: 1 μM of the L-arginine is titrated with 10 μM of the peptide aptamer, a solvent and a binding buffer is 10 mM PBS buffer, pH is 7.4, and a binding temperature is 37° C., and the peptide aptamer that can specifically bind to the L-arginine can be determined.
Molecular simulation and binding verification of a peptide aptamer with L-arginine • A) Molecular simulation of the peptide aptamer and the L-arginine: AutoDock is used to place the L-arginine on the active site of the peptide aptamer, and its binding mode is predicted. […]

Assay [2] is described as follows: Isothermal titration calorimeter binding to other amino acids. The conditions noted are these: amino acids having a similar structure to L-arginine.

For FGHIHEGY [peptide aptamer], the dissociation constant (Kd) in assay [1] amounted to 13.3 µM. In assay [2], the “binding ability to other amino acids (ITC)” value is “no or very weak binding ability”.

A word on the Kd: it is the free concentration of one partner at which half of the binding sites on the other are occupied at equilibrium, for simple one-to-one binding.
